# Data as given in patent EP0550007A2, “Eseroline derivatives having anticholinesterase activity, a process for their preparation and pharmaceutical compositions containing them” (priority 1991, dated 1993).
# Legend:
# acetylcholinesterase = target: T1, acetylcholinesterase (Mus musculus, UniProt P21836); assay: inhibition of acetylcholinesterase activity on the mouse brain after single doses; assay type: in vivo; settings: for suppression of the enzymatic activity: even at higher doses; for duration of the inhibitory activity compared with physostigmine: mouse brain acetylcholinesterase; for inhibition of the acetylcholinesterase activity, on the mouse brain: single doses in the range 0.4 - 7 mg/kg
# T1 construct: from tissue; host or cells: mouse brain
# T1 sequence (P21836 32-614): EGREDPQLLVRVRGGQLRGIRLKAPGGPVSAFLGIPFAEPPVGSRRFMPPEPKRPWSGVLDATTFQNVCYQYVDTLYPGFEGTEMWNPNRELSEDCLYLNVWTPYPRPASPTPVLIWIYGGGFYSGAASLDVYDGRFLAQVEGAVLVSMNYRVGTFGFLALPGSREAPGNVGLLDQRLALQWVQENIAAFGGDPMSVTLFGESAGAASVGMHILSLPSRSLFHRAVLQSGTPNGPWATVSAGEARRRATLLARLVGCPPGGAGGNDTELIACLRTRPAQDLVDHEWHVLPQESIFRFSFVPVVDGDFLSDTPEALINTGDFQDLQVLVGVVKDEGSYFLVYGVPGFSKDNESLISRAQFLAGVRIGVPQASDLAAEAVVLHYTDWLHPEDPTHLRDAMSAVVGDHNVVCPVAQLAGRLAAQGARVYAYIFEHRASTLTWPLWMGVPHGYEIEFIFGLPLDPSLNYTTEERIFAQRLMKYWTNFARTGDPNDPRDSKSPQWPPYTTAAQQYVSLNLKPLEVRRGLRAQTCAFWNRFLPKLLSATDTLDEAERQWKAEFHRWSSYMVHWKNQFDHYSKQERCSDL
# [1] = antagonist effect on the stimulating effect of scopolamine (motor activity), ESE series; assay type: in vivo; settings: oral administration of 2.5 mg; scopolamine 1 mg/kg
# Description: This is countered by the oral administration of 2.5 mg of ESE001, ESE002, ESE003, ESE004.
# [2] = pharmacokinetics in mouse after oral and intramuscular administration; assay type: in vivo
# Description: The kinetics of the four products to be considered, is studied in mouse after oral and intramuscular administration, of respectively 7 and 3.5 mg/kg respectively of ESE001, ESE002, ESE003, ESE004.
# mouse [3] = assay: analgesic activity, 2-phenylbenzoquinone test; assay type: in vivo
# Source text: Expte. Biol. Med. 95, 729, (1957).]
# The procedure followed represents a modification of the test developed by Hoffner [Dtsch. Med. Wschr. 55, 731 (1929)].
# [4] = toxicity, LD50 i.p. (Table 1); assay type: in vivo; settings: 50 % of the animals died within 24 hours from the administration; for LD50 at 24 h: in vivo, ip
# Description: LD50 is determined for the dose (mg/kg) at which 50 % of the animals died within 24 hours from the administration.
# [5] = test system: acetylcholinesterase activity (AchE); assay: in vivo anticholinesterase activity (blood and brain, Ellman colorimetric method); set-up: species or system Wistar male rats; settings: rats, oral, 1.5 to 4 mg/kg; sacrificed after 20, 60 and 120 minutes
# Description: The derivatives, under question and physostigmine suspended in 2% carboxymethylcellulose, were orally administered to groups of Wistar male rats (average weight about 250 g).
# On the base of the obtained results in preliminary trials, the doses utilized for the comparison were comprised beween 0.2 and 0.4 mg/kg for physostigmine and between 1.5 and 4 mg/kg for the eseroline derivatives under question.
# The groups of treated rats were sacrificed after 20, 60, and 120 minutes and the blood and the brain of each animal were immediately cooled to 0°C and maintained at this temperature during the successive treatments.
# The acetylcholinesterase activity (AchE) was determined by using the Ellman et al's quick colorimetric method (Biochem. Pharmacol., 7, 88, 1961) and it was expressed as enzymatic inhibition percentage.
# mouse [6] = assay: spontaneous motility (Dews' method modified according to Carminati); assay type: in vivo, mouse (SWISS strain); settings: for reduction of spontaneous motility: oral, starting from minimal doses of 3.5-5 mg/kg, on average; for minimal doses causing a marked reduction of spontaneous motility: orally administered
# Source text: The Dews' method was utilized, as modified according to Carminati (Arch. Int. Pharmacodyn. et Thér. 181, 68,1969).
# [7] = acute toxicity, oral LD50 in the mouse; settings: mouse, in vivo, po
# Source text: (§1) The mouse was used (Swiss strain having the average weight of the male mice being 26 g and 22 g that of the female mice: 5+5 animals per dose, observation period: 7days) The oral LD50 (suspension in 2% carboxymethylcellulose) were reported hereinbelow: Tab.2
# [8] = preliminary pharmacokinetics, plasma level by HPLC; assay type: in vivo, Wistar rats; settings: rats, 6.2 mg/kg/os
# Source text: The presence of the substance in the plasma was evidenced by HPLC. With this method, the identification threshold was 0.15 mcg per ml of plasma.
# mouse [9] = assay: acute toxicity, oral LD50 in the mouse; settings: oral, suspension in 2% carboxymethylcellulose, observation period 7 days
# Source text: as §1
structure (smiles),measurement,setting,value
"CN1CC[C@@]2(C)c3cc(OC(=O)N4CCCC4)ccc3N(C)[C@@H]12 (relative stereo) [ESE001, (3-aS-cis)-1,2,3,3a,8,8a-hexahydro 1,3a,8-trimethylpyrrole [2,3-B]-indole 5-ol-1-pyrrolidinyl-carbamate ester]",suppression of the enzymatic activity,acetylcholinesterase,do not suppress the enzymatic activity
same,duration of the inhibitory activity compared with physostigmine,acetylcholinesterase,last longer than that of physostigmine
same,"inhibition of the acetylcholinesterase activity, on the mouse brain",acetylcholinesterase,"dose-dependence, reversible inhibition"
same,countering of the stimulating effect of scopolamine,[1],countered
same,liver kinetics / excretion,[2],pass through into the urine unchanged
same,analgesic activity,mouse [3],show also analgesic activity
same,LD50,[4],5 mg/kg
"CCCC1CCN(NC(=O)Oc2ccc3c(c2)[C@]2(C)CCN(C)[C@@H]2N3C)C1=O (stereo partly drawn) [ESE011, (3-aS-cis)-1,2,3,3a,8,8a-hexahydro 1,3a,8-trimethylpyrrole [2,3-B]-indole 5-ol-1-(3-propyl)-2 pyrrolidone-carbamate ester]",LD50,[4]; 1440 min,< 60 mg/kg
same,LD50 at 24 h,[4],> 30 mg/kg
"CN1CC[C@@]2(C)c3cc(OC(=O)Nc4ccc5c(c4)OCO5)ccc3N(C)[C@@H]12 [MGT7, eseroline 1,3 benzodioxol-5 carbamate]",inhibitory activity of the acetylcholinesterase,[5],evident dose dipendent and reversible inhibitory activity
same,reduction of spontaneous motility,mouse [6],~-39%
same,minimal doses causing a marked reduction of spontaneous motility,mouse [6],3.5 to 5 mg/kg
same,LD50 at 168 h,[7],332 mg/kg
"CCCC1CCCN(NC(=O)Oc2ccc3c(c2)[C@]2(C)CCN(C)[C@@H]2N3C)C1C (stereo partly drawn) [ESE010, (3-aS-cis)-1,2,3,3a,8,8a-hexahydro 1,3a,8-trimethylpyrrole [2,3-B]-indole 5-ol-1-(3-propyl)-2-pipecolinylcarbamate ester]",LD50,[4]; 1440 min,< 60 mg/kg
same,LD50 at 24 h,[4],> 30 mg/kg
"CCCC1CN(NC(=O)Oc2ccc3c(c2)[C@]2(C)CCN(C)[C@@H]2N3C)CCO1 (stereo partly drawn) [ESE009, (3-aS-cis)-1,2,3,3a,8,8a-hexahydro 1,3a,8-trimethylpyrrole [2,3-B]-indole 5-ol-4-(3-propyl)-morpholinylcarbamate ester]",LD50,[4]; 1440 min,< 60 mg/kg
same,LD50 at 24 h,[4],> 30 mg/kg
"CC1CCCC(C)N1NC(=O)Oc1ccc2c(c1)[C@]1(C)CCN(C)[C@@H]1N2C (stereo partly drawn) [ESE007, (3-aS-cis)-1,2,3,3a,8,8a-hexahydro 1,3a,8-trimethylpyrrole [2,3-B]-indole 5-ol-1-(2,6-dimethyl) piperidine carbamate ester]",LD50,[4]; 1440 min,< 80 mg/kg
same,LD50 at 24 h,[4],> 40 mg/kg
"CN1CC[C@@]2(C)c3cc(OC(=O)NN4CCSCC4)ccc3N(C)[C@@H]12 [ESE004, (3-aS-cis)-1,2,3,3a,8,8a-hexahydro 1,3a,8-trimethylpyrrole [2,3-B]-indole 5-ol-1-thio-morpholinyl-carbamate ester]",suppression of the enzymatic activity,acetylcholinesterase,do not suppress the enzymatic activity
same,duration of the inhibitory activity compared with physostigmine,acetylcholinesterase,last longer than that of physostigmine
same,"inhibition of the acetylcholinesterase activity, on the mouse brain",acetylcholinesterase,"dose-dependence, reversible inhibition"
same,countering of the stimulating effect of scopolamine,[1],countered
same,liver kinetics / excretion,[2],pass through into the urine unchanged
same,analgesic activity,mouse [3],show also analgesic activity
same,LD50,[4]; 1440 min,<80 mg/kg
same,LD50 at 24 h,[4],> 40 mg/kg
"CN1CC[C@@]2(C)c3cc(OC(=O)NN4CCCNCC4)ccc3N(C)[C@@H]12 [ESE006, (3-aS-cis)-1,2,3,3a,8,8a-hexahydro 1,3a,8-trimethylpyrrole [2,3-B]-indole 5-ol-homopiperazinylcarbamate ester]",LD50,[4]; 1440 min,<80 mg/kg
same,LD50 at 24 h,[4],> 40 mg/kg
"CN1CC[C@@]2(C)c3cc(OC(=O)NN4CCOCC4)ccc3N(C)[C@@H]12 [ESE003, (3-aS-cis)-1,2,3,3a,8,8a-hexahydro 1,3a,8-trimethylpyrrole [2,3-B]-indole 5-ol-1-morpholinyl-carbamate ester]",suppression of the enzymatic activity,acetylcholinesterase,do not suppress the enzymatic activity
same,duration of the inhibitory activity compared with physostigmine,acetylcholinesterase,last longer than that of physostigmine
same,"inhibition of the acetylcholinesterase activity, on the mouse brain",acetylcholinesterase,"dose-dependence, reversible inhibition"
same,countering of the stimulating effect of scopolamine,[1],countered
same,liver kinetics / excretion,[2],pass through into the urine unchanged
same,analgesic activity,mouse [3],show also analgesic activity
same,LD50,[4]; 1440 min,<80 mg/kg
same,LD50 at 24 h,[4],> 40 mg/kg
"CN1CC[C@@]2(C)c3cc(OC(=O)NN4CCNCC4)ccc3N(C)[C@@H]12 [ESE002, (3-aS-cis)-1,2,3,3a,8,8a-hexahydro 1,3a,8-trimethylpyrrole [2,3-B]-indole 5-ol-1-piperazinyl-carbamate ester]",suppression of the enzymatic activity,acetylcholinesterase,do not suppress the enzymatic activity
same,duration of the inhibitory activity compared with physostigmine,acetylcholinesterase,last longer than that of physostigmine
same,"inhibition of the acetylcholinesterase activity, on the mouse brain",acetylcholinesterase,"dose-dependence, reversible inhibition"
same,countering of the stimulating effect of scopolamine,[1],countered
same,liver kinetics / excretion,[2],pass through into the urine unchanged
same,analgesic activity,mouse [3],show also analgesic activity
same,LD50,[4]; 1440 min,<80 mg/kg
same,LD50 at 24 h,[4],> 40 mg/kg
"CN1CC[C@@]2(C)c3cc(OC(=O)N[C@H]4CCCCNC4=O)ccc3N(C)[C@@H]12 [MGT1, eseroline R-caprolactam carbamate]",reduction of spontaneous motility,mouse [6],~-39%
same,minimal doses causing a marked reduction of spontaneous motility,mouse [6],3.5 to 5 mg/kg
same,maximum peak in plasma,[8],36.14 ± 7.12 µg/mL
same,time of the maximum peak,[8],90 '
same,concentration in plasma,[8]; after 24 hours,5090 ± 1710 ng/mL
same,concentration in plasma,[8]; time not given,17110 ± 3810 ng/mL
same,LD50 at 168 h,[7],322 mg/kg
"CN1CC[C@@]2(C)c3cc(OC(=O)NC4CN5CCC4CC5)ccc3N(C)[C@@H]12 (stereo partly drawn) [ESE012, (3-aS-cis)-1,2,3,3a,8,8a-hexahydro 1,3a,8-trimethylpyrrole [2,3-B]-indole 5-ol-3 quinuclidyl-carbamate ester]",LD50,[4]; 1440 min,< 60 mg/kg
same,LD50 at 24 h,[4],> 30 mg/kg
"CNC(=O)Oc1ccc2c(c1)[C@]1(C)CCN(C)[C@@H]1N2C [Physostigmine, reference compound]",LD50 at 24 h,[4],0.64 mg/kg
same,LD50 in the mouse,mouse [9],"4,39 ± 1,14 mg/kg"
"CN1CCC2(C)c3cc(OC(=O)NC4CCCN(CCO)C4=O)ccc3N(C)C12 (centres unmarked) [MGT3, eseroline N-ethanol-2-piperidone-3 aminocarbamate]",inhibitory activity of the acetylcholinesterase,[5],evident dose dipendent and reversible inhibitory activity
same,reduction of spontaneous motility,mouse [6],~-39%
same,minimal doses causing a marked reduction of spontaneous motility,mouse [6],3.5 to 5 mg/kg
same,LD50 in the mouse,mouse [9],"383,7 ± 41,2 mg/kg"
CN1CC[C@@]2(C)c3cc(OC(=O)NN4CCN(CCO)CC4)ccc3N(C)[C@@H]12 [ESE005],LD50,[4]; 1440 min,>40 mg/kg
same,LD50 at 24 h,[4],< 80 mg/kg
"CN1CC[C@@]2(C)c3cc(OC(=O)N[C@H]4C(O)O[C@H](CO)[C@@H](O)[C@@H]4O)ccc3N(C)[C@@H]12 (stereo partly drawn) [MGT4, eseroline N-D-glucosamine carbamate]",reduction of spontaneous motility,mouse [6],~-39%
same,minimal doses causing a marked reduction of spontaneous motility,mouse [6],3.5 to 5 mg/kg
same,LD50 at 168 h,[7],398 mg/kg
